Test results from patent US10934274B2, “Quinoline derivatives as TAM RTK inhibitors” (Qurient Co., Ltd., priority 2015, dated 2021).

Experiments:
Mer = molecular target: T1, Mer (Homo sapiens, UniProt Q12866); test: LanthaScreen Eu kinase binding assay, Mer; details: Tracer 236
T1 construct: purchased Life Technologies
T1 sequence (Q12866 21-999): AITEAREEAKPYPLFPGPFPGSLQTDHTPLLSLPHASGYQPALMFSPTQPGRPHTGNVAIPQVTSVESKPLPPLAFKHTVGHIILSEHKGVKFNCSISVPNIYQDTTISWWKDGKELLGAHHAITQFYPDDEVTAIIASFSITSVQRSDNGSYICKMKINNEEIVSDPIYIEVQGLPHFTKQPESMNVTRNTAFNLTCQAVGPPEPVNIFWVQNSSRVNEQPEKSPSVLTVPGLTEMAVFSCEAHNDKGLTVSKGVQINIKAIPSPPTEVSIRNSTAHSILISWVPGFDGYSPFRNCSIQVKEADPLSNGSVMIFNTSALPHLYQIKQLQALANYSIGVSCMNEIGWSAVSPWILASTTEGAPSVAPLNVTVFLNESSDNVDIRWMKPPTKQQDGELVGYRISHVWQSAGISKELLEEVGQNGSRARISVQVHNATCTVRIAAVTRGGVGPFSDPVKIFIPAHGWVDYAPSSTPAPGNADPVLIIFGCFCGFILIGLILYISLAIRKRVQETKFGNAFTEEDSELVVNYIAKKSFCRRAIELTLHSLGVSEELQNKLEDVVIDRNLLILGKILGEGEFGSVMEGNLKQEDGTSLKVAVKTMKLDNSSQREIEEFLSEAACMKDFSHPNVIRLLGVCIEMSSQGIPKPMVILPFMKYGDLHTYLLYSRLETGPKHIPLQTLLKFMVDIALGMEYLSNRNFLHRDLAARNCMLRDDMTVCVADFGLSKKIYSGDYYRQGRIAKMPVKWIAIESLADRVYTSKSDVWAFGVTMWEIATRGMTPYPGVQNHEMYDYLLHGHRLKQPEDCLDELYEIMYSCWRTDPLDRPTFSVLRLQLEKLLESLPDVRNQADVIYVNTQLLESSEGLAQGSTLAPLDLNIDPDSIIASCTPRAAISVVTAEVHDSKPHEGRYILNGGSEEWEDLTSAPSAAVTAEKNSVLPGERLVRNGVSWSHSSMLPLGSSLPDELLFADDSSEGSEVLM
Experimental: (§1) LanthaScreen® Eu Kinase Binding assays were conducted at Life Technologies using the manufacturer's specifications for each kinase indicated.
(§2) Briefly, the principle behind this assay is based upon the binding and displacement of an Alexa Fluor 647-labeled tracer to the kinase of interest. Binding of the tracer to the kinase is detected using an EU-labeled anti-tag antibody. Simultaneous binding of both the tracer and antibody to the kinase gives rise to a FRET-signal. Binding of an inhibitor to the kinase competes for binding with the tracer, resulting in a loss of FRET-signal.
(§3) Binding Assay Protocol for AXL, Mer, Tyro3 and Met
(§4) A given compound was diluted in DMSO to make a stock compound solution. The stock compound solution was serially diluted over eight steps in DMSO. Each diluted compound solution in DMSO was diluted in kinase buffer. Afterwards four kinds of working solution were prepared. First, Tracer-Working solution consists of Tracer 236 and Kinase Buffer. Second, Axl, Mer, Tyro3 or Met/anti-GST-AB-Working solution contained one of the kinases Axl, Mer, Tyro3, Met or anti-GST-AB (=anti glutathione-S-transferase antibody) in Kinase Buffer. Third, anti-GST-AB-Working solution was made with anti-GST-AB and Kinase Buffer. Last, in the DMSO-Working solution DMSO was added to Kinase Buffer to a final concentration to 3%. Each of the four kinds of working solutions were separately added to the assay plate and then incubated for 1 h at room temperature. After incubation, the assay plate was measured with respect to the FRET-Signal with the EnVision (Perkin Elmer) using the program LanthaHTRF-Assay. Data evaluation was done in the Quattro Workflow software.
(§5) Table 1 summarises the results obtained for AXL, Mer and Tyro3-kinases binding assays; table 2 summarises the results obtained for the Met kinase binding assay.

Axl = molecular target: T2, Axl (Homo sapiens, UniProt P30530); test: LanthaScreen Eu kinase binding assay, Axl; details: Tracer 236
T2 construct: purchased Life Technologies
T2 sequence (P30530 26-894): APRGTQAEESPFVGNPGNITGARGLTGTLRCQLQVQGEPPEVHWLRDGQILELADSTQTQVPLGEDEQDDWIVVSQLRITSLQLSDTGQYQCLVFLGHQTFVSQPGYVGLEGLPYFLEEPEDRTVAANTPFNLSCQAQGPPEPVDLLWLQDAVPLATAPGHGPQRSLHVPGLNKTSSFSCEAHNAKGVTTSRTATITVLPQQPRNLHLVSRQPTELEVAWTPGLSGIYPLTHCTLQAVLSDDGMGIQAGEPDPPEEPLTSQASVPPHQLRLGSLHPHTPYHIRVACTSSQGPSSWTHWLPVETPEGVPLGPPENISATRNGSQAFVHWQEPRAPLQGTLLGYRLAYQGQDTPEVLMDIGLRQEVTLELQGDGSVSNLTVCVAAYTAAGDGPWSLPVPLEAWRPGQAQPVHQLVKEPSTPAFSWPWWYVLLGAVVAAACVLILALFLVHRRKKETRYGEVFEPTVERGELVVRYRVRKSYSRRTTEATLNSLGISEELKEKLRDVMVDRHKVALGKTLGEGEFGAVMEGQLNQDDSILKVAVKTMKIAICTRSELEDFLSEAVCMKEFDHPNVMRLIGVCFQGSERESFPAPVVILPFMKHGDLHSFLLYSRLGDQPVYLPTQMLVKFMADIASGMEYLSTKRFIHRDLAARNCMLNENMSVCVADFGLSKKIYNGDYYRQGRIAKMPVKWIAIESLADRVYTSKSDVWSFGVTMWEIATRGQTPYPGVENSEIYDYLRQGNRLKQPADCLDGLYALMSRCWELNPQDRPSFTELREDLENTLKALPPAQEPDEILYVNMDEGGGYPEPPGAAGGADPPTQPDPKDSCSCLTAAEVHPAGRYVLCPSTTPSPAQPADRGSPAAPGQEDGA
Experimental: as §1, §2, §3, §4, §5

Met = molecular target: T3, Met (Homo sapiens, UniProt P08581); test: LanthaScreen Eu kinase binding assay, Met; details: Tracer 236, read-out: cMet kinase binding activity (Kd)
T3 construct: purchased Life Technologies
Experimental: as §1, §2, §3, §4, §5

TYRO3 = molecular target: T4, TYRO3 (Homo sapiens, UniProt Q06418); test: LanthaScreen Eu kinase binding assay, TYRO3; details: Tracer 236
T4 construct: purchased Life Technologies
T4 sequence (Q06418 41-890): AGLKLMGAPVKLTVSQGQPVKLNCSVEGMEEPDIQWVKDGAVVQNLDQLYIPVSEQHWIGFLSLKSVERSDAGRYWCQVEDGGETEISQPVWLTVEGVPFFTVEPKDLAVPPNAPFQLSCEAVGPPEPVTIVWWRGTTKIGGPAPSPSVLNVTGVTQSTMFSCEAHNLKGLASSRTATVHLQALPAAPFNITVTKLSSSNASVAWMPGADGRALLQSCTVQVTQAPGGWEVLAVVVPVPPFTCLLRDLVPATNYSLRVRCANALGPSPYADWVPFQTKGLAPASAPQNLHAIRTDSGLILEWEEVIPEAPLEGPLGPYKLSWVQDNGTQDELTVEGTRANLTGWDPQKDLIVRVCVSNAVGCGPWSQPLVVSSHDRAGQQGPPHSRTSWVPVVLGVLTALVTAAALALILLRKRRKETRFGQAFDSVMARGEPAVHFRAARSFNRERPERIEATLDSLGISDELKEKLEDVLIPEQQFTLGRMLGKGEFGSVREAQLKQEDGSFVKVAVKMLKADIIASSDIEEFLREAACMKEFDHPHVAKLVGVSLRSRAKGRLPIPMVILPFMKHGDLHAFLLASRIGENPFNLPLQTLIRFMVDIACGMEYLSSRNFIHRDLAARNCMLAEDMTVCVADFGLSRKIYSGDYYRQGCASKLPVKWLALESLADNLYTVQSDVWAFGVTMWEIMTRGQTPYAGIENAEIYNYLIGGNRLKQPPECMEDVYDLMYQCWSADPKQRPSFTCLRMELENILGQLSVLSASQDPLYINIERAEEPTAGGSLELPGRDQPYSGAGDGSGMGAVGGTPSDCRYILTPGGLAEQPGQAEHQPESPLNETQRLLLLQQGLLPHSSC
Experimental: as §1, §2, §3, §4, §5

T3 sequence (P08581 25-1390): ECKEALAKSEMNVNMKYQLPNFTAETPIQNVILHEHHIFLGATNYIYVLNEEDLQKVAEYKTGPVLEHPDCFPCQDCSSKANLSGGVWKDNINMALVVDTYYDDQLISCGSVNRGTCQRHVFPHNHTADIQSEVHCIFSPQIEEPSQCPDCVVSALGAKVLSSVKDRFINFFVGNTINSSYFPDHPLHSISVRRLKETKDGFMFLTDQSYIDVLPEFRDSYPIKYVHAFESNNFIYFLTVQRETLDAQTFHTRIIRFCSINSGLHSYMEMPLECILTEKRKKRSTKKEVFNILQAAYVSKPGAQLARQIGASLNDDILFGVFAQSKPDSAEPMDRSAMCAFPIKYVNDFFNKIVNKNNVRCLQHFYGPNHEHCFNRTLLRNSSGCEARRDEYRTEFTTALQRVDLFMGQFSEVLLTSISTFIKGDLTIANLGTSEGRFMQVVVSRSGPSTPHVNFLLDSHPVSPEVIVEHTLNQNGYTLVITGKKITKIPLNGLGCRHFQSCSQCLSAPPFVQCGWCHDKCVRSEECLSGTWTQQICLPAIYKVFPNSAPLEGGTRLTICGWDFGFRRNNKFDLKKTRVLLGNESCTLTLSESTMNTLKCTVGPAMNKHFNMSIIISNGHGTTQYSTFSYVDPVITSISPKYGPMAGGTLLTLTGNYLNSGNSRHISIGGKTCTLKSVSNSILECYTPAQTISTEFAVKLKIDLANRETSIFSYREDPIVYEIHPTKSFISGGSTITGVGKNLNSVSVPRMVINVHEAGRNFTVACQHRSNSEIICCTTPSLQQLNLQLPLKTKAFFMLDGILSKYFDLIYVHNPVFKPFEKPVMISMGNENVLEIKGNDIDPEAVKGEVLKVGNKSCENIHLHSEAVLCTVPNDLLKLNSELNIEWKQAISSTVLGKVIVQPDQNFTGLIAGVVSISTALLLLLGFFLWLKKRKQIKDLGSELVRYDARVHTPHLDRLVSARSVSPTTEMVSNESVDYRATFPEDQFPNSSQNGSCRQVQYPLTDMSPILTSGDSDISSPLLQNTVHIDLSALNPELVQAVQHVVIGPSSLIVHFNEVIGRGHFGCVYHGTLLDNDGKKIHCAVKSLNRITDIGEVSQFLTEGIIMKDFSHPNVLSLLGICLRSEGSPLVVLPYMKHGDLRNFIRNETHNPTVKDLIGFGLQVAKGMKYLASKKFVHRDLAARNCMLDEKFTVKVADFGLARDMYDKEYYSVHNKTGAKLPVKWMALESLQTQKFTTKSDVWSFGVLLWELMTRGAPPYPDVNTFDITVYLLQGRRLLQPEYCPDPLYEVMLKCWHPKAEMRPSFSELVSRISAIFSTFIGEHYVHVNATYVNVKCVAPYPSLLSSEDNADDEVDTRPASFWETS

Kd (Mer) [nM] | Kd (Axl) [nM] | Kd (Met) [nM] | Kd (TYRO3) [nM] | SMILES
< 100 | 100 to 1000 | < 100 | 100 to 1000 | CCOc1cn(-c2ncc(Cl)cc2CN(C)C)nc1C(=O)Nc1ccc(Oc2ccnc3cc(OC)c(OC)cc23)cn1 [Compound 138]
< 100 | < 100 | < 100 | 100 to 1000 | CCOc1cn(-c2cnc(N)s2)nc1C(=O)Nc1ccc(Oc2ccnc3cc(OC)c(OC)cc23)cn1 [Compound 139]
< 100 | < 100 | < 100 | 100 to 1000 | CCOc1cn(-c2cnc(N)nc2)nc1C(=O)Nc1ccc(Oc2ccnc3cc(OC)c(OC)cc23)c(C)c1 [Compound 140]
< 100 | 100 to 1000 | < 100 | 100 to 1000 | CCOc1cn(-c2ncccc2CN(C)C)nc1C(=O)Nc1ccc(Oc2ccnc3cc(OC)c(OC)cc23)cn1 [Compound 142]
< 100 | < 100 | < 100 | < 100 | CCOc1cn(-c2ncc(N)nc2C)nc1C(=O)Nc1ccc(Oc2ccnc3cc(OC)c(OC)cc23)cn1 [Compound 143]
< 100 | < 100 | 100 to 1000 | 100 to 1000 | CCOc1cn(-c2cnc(C(F)(F)F)nc2)nc1C(=O)Nc1ccc(Oc2ccnc3cc(OC)c(OC)cc23)cn1 [Compound 144]
≥ 1000 | ≥ 1000 | ≥ 1000 | ≥ 1000 | CCOc1cnn(-c2cnc(C(F)(F)F)nc2)c1C(=O)Nc1ccc(Oc2ccnc3cc(OC)c(OC)cc23)cn1 [Compound 145]
< 100 | < 100 | < 100 | < 100 | CCOc1cn(-c2cnc(N)nc2)nc1C(=O)Nc1ccc(Oc2ccnc3cc(OC)c(OC)cc23)c(Cl)c1 [Compound 146]
< 100 | < 100 | < 100 | < 100 | CCOc1cn(-c2cnccc2C#N)nc1C(=O)Nc1ccc(Oc2ccnc3cc(OC)c(OC)cc23)cn1 [Compound 147]
< 100 | < 100 | < 100 | < 100 | CCOc1cn(-c2cnc(N)nc2C)nc1C(=O)Nc1ccc(Oc2ccnc3cc(OC)c(OC)cc23)cn1 [Compound 150]
< 100 | ≥ 1000 | ≥ 1000 | ≥ 1000 | CCOc1cn(-c2cnccn2)nc1C(=O)Nc1ccc(Oc2ccnc3cc(OC)c(OC)cc23)cc1F [Compound 152]
< 100 | < 100 | < 100 | < 100 | CCOc1cn(-c2cnc(N)nc2)nc1C(=O)Nc1ccc(Oc2ccnc3cc(OC)c(OC)cc23)cc1F [Compound 153]
< 100 | < 100 | ≥ 1000 | ≥ 1000 | CCOc1cn(-c2cccnc2)nc1C(=O)Nc1ncc(Oc2ccnc3cc(OC)c(OC)cc23)cc1F [Compound 154]
< 100 | < 100 | < 100 | 100 to 1000 | CCOc1cn(-c2ncc(F)cc2C#N)nc1C(=O)Nc1ccc(Oc2ccnc3cc(OC)c(OC)cc23)cn1 [Compound 155]
< 100 | < 100 | < 100 | < 100 | CCOc1c(C(=O)Nc2ccc(Oc3ccnc4cc(OC)c(OC)cc34)cn2)nn(-c2cccnc2)c1C [Compound 156]
< 100 | < 100 | < 100 | ≥ 1000 | CCOc1cn(-c2cncc(C)n2)nc1C(=O)Nc1ccc(Oc2ccnc3cc(OC)c(OC)cc23)cn1 [Compound 157]
≥ 1000 | 100 to 1000 | ≥ 1000 | ≥ 1000 | CCOc1cn(-c2cncc(C#N)n2)nc1C(=O)Nc1ccc(Oc2ccnc3cc(OC)c(OC)cc23)cn1 [Compound 158]
≥ 1000 | ≥ 1000 | ≥ 1000 | ≥ 1000 | CCOc1cn(-c2cnc(C(F)(F)F)cn2)nc1C(=O)Nc1ccc(Oc2ccnc3cc(OC)c(OC)cc23)cn1 [Compound 159]
< 100 | < 100 | < 100 | ≥ 1000 | CCOc1cn(-c2cnccn2)nc1C(=O)Nc1cc(C)c(Oc2ccnc3cc(OC)c(OC)cc23)cn1 [Compound 163]
< 100 | 100 to 1000 | 100 to 1000 | ≥ 1000 | CCOc1cn(-c2cncc(C(F)(F)F)n2)nc1C(=O)Nc1ccc(Oc2ccnc3cc(OC)c(OC)cc23)cn1 [Compound 164]
< 100 | < 100 | < 100 | < 100 | CCOc1cn(-c2cncnc2C(C)C)nc1C(=O)Nc1ccc(Oc2ccnc3cc(OC)c(OC)cc23)cn1 [Compound 166]
< 100 | < 100 | < 100 | 100 to 1000 | CCOc1cn(-c2cnc(F)cn2)nc1C(=O)Nc1ccc(Oc2ccnc3cc(OC)c(OC)cc23)cn1 [Compound 171]
